Test results as given in article PMC8911927, “Synthesis and Biological Evaluation of 1-(2-(6-Methoxynaphthalen-2-yl)-6-methylnicotinoyl)-4-Substituted Semicarbazides/Thiosemicarbazides as Anti-Tumor Nur77 Modulators” (Molecules, 2022).

Experiments:
MDA-MB231 cells = test: MTT cytotoxicity, MDA-MB231; format: cell-based; details: read-out: Cancer Cells IC50, MDA-MB231
Description: (§1) All of the cell lines were obtained from the American Type Culture Collection (ATCC, Manassas, VA, USA) and grown in DMEM or RPMI culture medium containing 10% fetal bovine serum (v/v) in 5% CO2 at 37 °C. Confluent cells in good state were cultured in 96-well plates (5–10 × 10^4 cells/mL). After cells were attached to the plate, compounds with various concentrations were applied at 37 °C for 72 h. […] The supernatant was removed, and the cells were dissolved in 100 μL dimethyl sulfoxide and shaken for 5 min.

HGC-27 cells [1] = test: Flow cytometry cell cycle assay; format: cell-based, human; set-up: dose or concentration left out as unconfirmed; details: 8 h of treatment
Description: Flow cytometry analysis was applied for cell cycle detection. Firstly, HGC-27 cell was adjusted to 1 × 10^6/mL, inoculated into a six-well plate and placed in an incubator at 37 °C containing 5% CO2 saturated humidity overnight. After the cells were fully attached to the plate, […] 9u and 9h were administrated to the cells for 8 h. After cells were collected and fixed with 70% ethanol, DAPI was applied to stain the cells at the final concentration of 1 μg/mL; subsequently, on-board testing by flow cytometry (Cytoflex S (Beckman Coulter, Brea, CA, USA)) was conducted.

A549 cells = test: MTT cytotoxicity, A549; format: cell-based; details: read-out: Cancer Cells IC50, A549
Description: as §1

MRC-5 cells = test: MTT cytotoxicity, MRC-5 normal cells; format: cell-based
Description: as §1

H460 cells = test: MTT cytotoxicity, H460; format: cell-based; details: read-out: Cancer Cells IC50, H460
Description: as §1

HGC-27 cells [2] = test: Colony formation assay; format: cell-based, human; details: treatment for two weeks, 5 μM and 10 μM, dose-dependent
Description: HGC-27 cells were cultured in a six-well plate (500 cells/well) and treated with 9u and 9h in 10% serum medium for two weeks, then fixed with methanol at room temperature and stained with 0.1% crystal violet, and images were scanned with a scanner.

MCF-7 cells = test: MTT cytotoxicity, MCF-7; format: cell-based, human; details: 72 h, mean values
Description: (§2) All of the cell lines were obtained from the American Type Culture Collection (ATCC, Manassas, VA, USA) and grown in DMEM or RPMI culture medium containing 10% fetal bovine serum (v/v) in 5% CO2 at 37 °C.
(§3) Confluent cells in good state were cultured in 96-well plates (5–10 × 10^4 cells/mL). After cells were attached to the plate, compounds with various concentrations were applied at 37 °C for 72 h. Then, the cells were incubated with 10 μL of 5 mg/mL MTT reagent at 37 °C for 4 h. The supernatant was removed, and the cells were dissolved in 100 μL dimethyl sulfoxide and shaken for 5 min. Finally, the light absorption (OD) of the dissolved cells was measured at […].

LO2 cells = test: MTT cytotoxicity, LO2 normal cells; format: cell-based
Description: as §1

HGC-27 cells [3] = test: MTT cytotoxicity, HGC-27; format: cell-based, human; details: 72 h, mean values
Description: as §2, §3

A875 cells = test: MTT cytotoxicity, A875; format: cell-based; details: read-out: Cancer Cells IC50, A875
Description: as §1

Nur77 [4] = target: T1, Nur77 (Homo sapiens, UniProt P22736); test: Nur77 localization by nuclear-cytosol fractionation and immunofluorescence; format: cell-based; details: HGC-27 cells, 3 h, 10 µM for immunofluorescence
T1 construct: endogenous in cells; host or cells: HGC-27
Description: Cells in the logarithmic phase of growth were seeded in 6-cm dishes; after, apposition cells were treated with compound 9h for 3 h. The medium was discarded and washed twice with pre-chilled PBS, then the cells were scraped off with a cytoscraper and collected into 1.5 mL centrifuge tubes and centrifuged at 1500 rpm for 3 min. Next, 80 μL of Buffer B (containing 100× protease inhibitor) were added for 20 min in an ice bath, followed by 20 μL of Buffer B containing 1% TritonX-100. The mixture was vortexed for 10 s, centrifuged at 10,000× g for 15 min at 4 °C, the supernatant collected as cytoplasmic proteins and the precipitate as the nuclear fraction. Then, 100 μL of Buffer C containing 0.4% TritonX-100 were added and centrifuged for 15 min at 4 °C, and 100 uL of Buffer C containing 0.4% TritonX-100 were added and vortexed for 30 min at 4 °C, centrifuged at 15,000× g for 15 min at 4 °C, and the supernatant was the nucleus protein.
The cells were inoculated into the culture dish with preplaced treated coverslips, and the coverslips were removed when the cells were close to growing into a monolayer. Then, they were washed twice with PBS and 4% paraformaldehyde was used to fix the cells for 30 min. The cells were permeabilized with 1‰ TritonX-100 for 10 min. […] One drop of blocker containing DAPI dye was added and the slice sealed and this was examined by fluorescence microscopy.

Nur77 [5] = test: Western blot of Nur77 expression; format: cell-based, human; details: HGC-27 cells, concentration gradient
Description: (§4) Equal amounts of the lysates were electrophoresed on 10% SDS-PAGE gel and transferred onto PVDF membranes. After blocked with 5% nonfat milk in TBST (50 mM Tris-HCl (pH 7.4), 150 mM NaCl and 0.1% Tween 20) for 1 h, the membranes were incubated with various primary antibodies overnight and secondary antibodies for 3 h, finally detected using an ECL system. The blots were captured with ChemiDoc XRS+System (Bio-Rad, Hercules, CA, USA).

HeLa cells = test: MTT cytotoxicity, HeLa; format: cell-based, human; details: 72 h, mean values
Description: as §2, §3

cleaved PARP = test: Western blot of cleaved PARP; format: cell-based, human; details: HGC-27 cells, different times and concentrations, 24 h
Description: as §4

HepG2 cells = test: MTT cytotoxicity, HepG2; format: cell-based; details: read-out: Cancer Cells IC50, HepG2
Description: as §1

T1 sequence (P22736 whole entry): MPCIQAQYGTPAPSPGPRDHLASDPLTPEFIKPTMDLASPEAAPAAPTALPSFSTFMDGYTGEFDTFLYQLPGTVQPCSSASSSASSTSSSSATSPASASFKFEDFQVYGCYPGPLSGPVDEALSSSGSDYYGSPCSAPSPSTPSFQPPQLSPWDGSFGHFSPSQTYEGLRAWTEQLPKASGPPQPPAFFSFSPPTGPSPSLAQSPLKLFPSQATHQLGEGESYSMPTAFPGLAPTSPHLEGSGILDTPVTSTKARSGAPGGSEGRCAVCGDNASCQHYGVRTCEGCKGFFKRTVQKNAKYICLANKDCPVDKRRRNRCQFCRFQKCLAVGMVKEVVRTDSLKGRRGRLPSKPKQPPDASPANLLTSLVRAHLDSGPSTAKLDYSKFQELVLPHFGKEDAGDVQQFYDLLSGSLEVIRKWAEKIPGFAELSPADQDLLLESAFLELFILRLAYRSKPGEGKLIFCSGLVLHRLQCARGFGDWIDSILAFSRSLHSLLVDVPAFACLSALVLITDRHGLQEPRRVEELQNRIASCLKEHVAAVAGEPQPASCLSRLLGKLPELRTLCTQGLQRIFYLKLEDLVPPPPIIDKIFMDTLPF

## 4-(2-Chlorophenyl)-1-(2-(6-methoxynaphthalen-2-yl)-6-methylnicotinoyl)semicarbazide [Compound 9h]
MDA-MB231 cells
  IC50: 4.3 ± 0.33 µM
HGC-27 cells [1]
  Effect on cell cycle: induced cell cycle blockage in G2-M phase
A549 cells
  IC50: 7.3 ± 0.21 µM
MRC-5 cells
  IC50: > 50 µM
H460 cells
  IC50: 9.2 ± 0.24 µM
HGC-27 cells [2]
  Colony formation of HGC-27 cells: completely inhibited colony formation
MCF-7 cells
  IC50: 3.3 ± 0.21 µM
LO2 cells
  IC50: > 50 µM
HGC-27 cells [3]
  IC50: 1.4 ± 0.11 µM
A875 cells
  IC50: > 50 µM
Nur77 [4]
  Nur77 nuclear export: significantly induced Nur77 nuclear export
Nur77 [5]
  Nur77 expression: induced Nur77 expression
HeLa cells
  IC50: 4.12 ± 0.08 µM
Cleaved PARP
  PARP cleavage: induce the PARP cleavage in a dose-dependent and time-dependent manner
HepG2 cells
  IC50: 5.1 ± 0.01 µM
